Laboratory results published in patent US12029747B2, “Use of baicalin in preparation of drug for treating tumor irresponsive to immune checkpoint inhibitors (ICIs)/undergoing hyperprogression” (BEIJING FRIENDSHIP HOSPITAL, CAPITAL MEDICAL UNIVERSITY, priority 2022, dated 2024).
“Also recorded” adds a separate entry of the source.

Assays:
[1] = system: Lewis lung carcinoma (LLC); assay: Therapeutic effect in PD-1 mAb-irresponsive (NR-FMT) LLC-bearing mice: tumor volume and weight; type: in vivo, C57BL/6J mice; conditions: compared with NR-Control group, HQG intragastric daily, PD-1 mAb i.p. once every 3 days
Method: Pseudo-germ-free mouse modeling: Mice were treated with broad-spectrum antibiotics to construct pseudo-germ-free mouse models. 36 female C57BL/6J mice at 5 weeks (experimental animal license No.: SCXK (Beijing) 2019-0009) were purchased from Beijing Vital River Laboratory Animal Technology Co., Ltd. The mice were raised under the following conditions: cleanliness: SPF level; room temperature: 20° C. to 22° C.; humidity: 60±5%; 12 h light/12 h dark alternating cycle; and free eating and drinking. All animal protocols in this experiment were approved by the Beijing MaideiKangna Animal Ethics Committee, and animal experimental operations were conducted under the guidance of the Laboratory Animal Protection Association.
After the mice were raised adaptively for one week, the mice were intragastrically administered daily with 100 μL of ABT for consecutive 3 days. […]
Subcutaneous inoculation of LLC cells: An LLC cell suspension with a concentration of about 1×10^7 cells/mL was inoculated at a right axilla of a fecal bacteria-transplanted mouse with an inoculum size of 0.2 mL/mouse. The longest and shortest diameters of a tumor were measured by a vernier caliper, and a volume of the tumor=½ longest diameter×shortest diameter^2. […]
(§1) During administration, a body weight of mice was monitored every 3 days, and a tumor volume was measured.

[2] = system: Foxp3^+Treg cells; assay: Detection of Foxp3+Treg cells in a tumor tissue by FCM (NR-FMT LLC-bearing mice); type: in vivo, C57BL/6J mice; conditions: flow cytometry of tumor tissue
[3] = Adverse reactions in treated tumor-bearing mice; type: in vivo; conditions: tumor-bearing mice irresponsive to ICIs
Method: as §1

O=C(O)[C@H]1O[C@@H](Oc2cc3oc(-c4ccccc4)cc(=O)c3c(O)c2O)[C@H](O)[C@@H](O)[C@@H]1O [HQG, baicalin]
tumor volume [1]: no significant difference; also recorded: not reduced | tumor weight [1]: no significant difference; also recorded: not reduced | number of Foxp3+Treg cells in a tumor [2]: not reduced | adverse reactions [3]: no significant adverse reactions
